Data as given in paper PMC6542528, “Identification, structure-activity relationship and in silico molecular docking analyses of five novel angiotensin I-converting enzyme (ACE)-inhibitory peptides from stone fish (Actinopyga lecanora) hydrolysates” (PLoS ONE, 2019).
No end group written: not given here.

Experiments:
[1] = target: T1, angiotensin I-converting enzyme (from rabbit lung) (Oryctolagus cuniculus, UniProt P12822); test: ACE-inhibitory activity assay (HHL substrate, colorimetric at 410 nm) and IC50 determination; format: biochemical; conditions: mean ± SD, triplicate; for inhibition at 10000 µM: synthesized peptide at 10 mM; for IC50: synthesized peptide, non-linear regression
T1 construct: angiotensin I-converting enzyme (from rabbit lung); purchased Sigma Aldrich (St. Louis, Mo, USA); host or cells: rabbit lung (tissue-derived)
T1 sequence (P12822 34-1310): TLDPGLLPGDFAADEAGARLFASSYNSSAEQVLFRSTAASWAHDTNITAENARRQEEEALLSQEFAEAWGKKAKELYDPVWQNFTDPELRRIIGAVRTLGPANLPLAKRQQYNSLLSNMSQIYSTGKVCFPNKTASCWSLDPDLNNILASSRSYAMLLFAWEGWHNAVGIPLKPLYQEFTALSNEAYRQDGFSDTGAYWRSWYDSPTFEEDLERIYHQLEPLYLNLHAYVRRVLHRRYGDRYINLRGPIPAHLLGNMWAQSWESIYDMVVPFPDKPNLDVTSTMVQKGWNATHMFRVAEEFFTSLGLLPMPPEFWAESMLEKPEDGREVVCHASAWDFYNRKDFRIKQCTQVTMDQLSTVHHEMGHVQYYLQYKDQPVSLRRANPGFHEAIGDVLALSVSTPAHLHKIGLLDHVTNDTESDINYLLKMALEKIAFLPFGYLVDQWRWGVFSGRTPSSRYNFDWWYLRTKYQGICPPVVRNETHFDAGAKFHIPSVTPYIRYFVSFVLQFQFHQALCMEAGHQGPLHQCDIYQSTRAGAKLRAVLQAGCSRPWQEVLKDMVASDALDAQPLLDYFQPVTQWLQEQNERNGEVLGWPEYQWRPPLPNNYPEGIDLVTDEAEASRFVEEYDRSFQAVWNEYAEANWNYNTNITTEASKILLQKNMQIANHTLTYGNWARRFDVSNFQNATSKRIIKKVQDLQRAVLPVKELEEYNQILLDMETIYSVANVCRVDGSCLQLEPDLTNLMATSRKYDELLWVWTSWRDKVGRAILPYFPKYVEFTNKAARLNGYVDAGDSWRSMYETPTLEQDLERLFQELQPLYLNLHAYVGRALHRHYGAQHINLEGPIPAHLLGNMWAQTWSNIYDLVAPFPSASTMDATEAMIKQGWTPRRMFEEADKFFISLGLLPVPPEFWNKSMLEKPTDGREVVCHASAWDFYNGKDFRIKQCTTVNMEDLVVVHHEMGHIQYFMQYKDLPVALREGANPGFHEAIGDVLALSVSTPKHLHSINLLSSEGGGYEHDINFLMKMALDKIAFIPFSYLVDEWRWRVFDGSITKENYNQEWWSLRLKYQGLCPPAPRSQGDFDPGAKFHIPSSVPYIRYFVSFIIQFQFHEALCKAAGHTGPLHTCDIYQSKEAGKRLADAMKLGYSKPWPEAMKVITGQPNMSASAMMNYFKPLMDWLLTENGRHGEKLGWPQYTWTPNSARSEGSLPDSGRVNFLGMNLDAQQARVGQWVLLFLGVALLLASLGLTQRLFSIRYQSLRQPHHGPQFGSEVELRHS
Description: The peptides were chemically synthesized through solid phase synthesis for peptides ≥ 5 amino acids with a percentage purity of > 90% and supplied by Genscript (New Jersey, USA). The ACE-inhibitory activity was measured according to Jimsheena & Gowda with minor modifications. The Peptides stock solutions were diluted over ranges of concentration for each peptide. A 15 μL of the peptide was pre-incubated with 10 μL of ACE (100 mU/mL) at 37°C for 10 min. Then 50 μL of the 5 mM HHL substrate containing 0.30 M NaCl in 50 mM borate buffer pH 8.30 was added and the incubation was continued for the next 60 min. The reaction was stopped using 1 M HCl. Benzene sulfonyl chloride (BSC) and pyridine were then added at 75 μL and 150 μL, respectively and the amount of hippuric acid produced was quantified by the intensity of the yellow color produced in a microplate reader at 410 nm. The ACE-inhibitory activity of the peptides was then calculated from the average of three values as follows: ACE−inhibition(%)=[(AC−AS)/(AC−AB)]×100 (1)
Where AC means absorbance of control (where ACE and substrate were present), AS means absorbance of sample (where peptide, ACE and substrate were present), while AB means the absorbance of blank (where only substrate was present).

ACE = tested on: ACE; parameters: method as in PMID 22224920; conditions: bromelain-generated peptide from Misgurnus anguillicaudatus tissue protein; cited from earlier work

Substance: ALGPQFY [Ala-Leu-Gly-Pro-Gln-Phe-Tyr]
- inhibition at 10000 µM [1]: 94.4 ± 2.05%
- IC50 [1]: 12 ± 1 µM

Substance: Ala-His-Leu-Leu (AHLL; printed: Ala-His-Leu-Leu)
- IC50 (ACE): 18.200 ± 0.900 µg/mL

Substance: EHPVL [Glu-His-Pro-Val-Leu]
- inhibition at 10000 µM [1]: 54.8 ± 2.17%
- IC50 [1]: 1680 ± 46 µM

Substance: EVLIQ [Glu-Val-Leu-Ile-Gln]
- inhibition at 10000 µM [1]: 62.1 ± 2.15%
- IC50 [1]: 1440 ± 17 µM

Substance: KVPPKA [Lys-Val-Pro-Pro-Lys-Ala]
- inhibition at 10000 µM [1]: 81.4 ± 1.78%
- IC50 [1]: 980 ± 4 µM

Substance: LAPPTM [Leu-Ala-Pro-Pro-Thr-Met]
- inhibition at 10000 µM [1]: 72.4 ± 1.99%
- IC50 [1]: 1310 ± 17 µM
